We go through 30 compounds from patent US7569608B2, “Pentanoic acid derivatives” (Ono Pharmaceutical Co., Ltd., priority 1993, dated 2009).

One experiment deals with GABAA receptor. In words: Experiment 2: regeneration of GABAA receptor responses in reactive astrocytes. The class given is cell-based, rat. Conditions: 0.03 mM, 14 DIV after serial passages, control 8 ± 6. The protocol: (§1) Preparation of astrocyte cultures: After removing the meninges, isolated cerebrum of neonatal rats (age: day 1) were placed on frosted glass-slides and minced. The sample was then digested with trypsin (0.25%) and DNase 1 (0.02%) and suspended in 10% FCS-DMEM before centrifugation. After resuspending in 10% FCS-DMEM, the suspension was dispersed in dishes and cultured at 37° C. under 5% CO2 atmosphere. Non-adherent cells were removed from the dishes after agitation/washing on post-culture 24 hours. Note that the adherent cell population was composed of more than 95% of GFAP-positive cells.
(§2) GFAP contents and GABAA receptor responses: The improvement effects on astrocyte functions were evaluated from the following indices: inhibition derived from the increase in GFAP content and inhibition in the disappearance of GABAA receptor responses. Thus, sodium valproate (Sigma Chem. Co., U.S.A.) was added on 1 DIV followed by whole-cell mode voltage-clamp method on 7 DIV-to measure the GABA (3×10^−5 M)-induced Cl^− current. The Cl^− current was taken as an index for the GABA response. Furthermore, GFAP contents were determined by the ELISA method on 11 DIV.
Astrocytes were prepared and cultured in a manner similar to Experiment 1. On 14 DIV, reactive astrocytes were subjected to a serial passage (10^5 cells/dish). The thus adherent reactive astrocytes were washed, and transferred to culture media containing the present effectively developed compound(s) or invention. On 14 DIV after serial passages, GABAA receptor responses were tested according to procedures designated in Experiment 1.
In the case of `CCCCCCC(CCC)C(=O)[O-].[Na+]` (centres unmarked) [Example 7(33)], the “GABAA receptor responses (means ± S.E.)” value came out at 40 ± 23 pA. On the same count and under the same terms, for `CCCCCCCC(CCC)C(=O)O` (centres unmarked) [Example 2-PNA, 2-propylnonanic acid] the value was 85 ± 41 pA.

The same experiment, now with this note: 0.1 mM, 14 DIV after serial passages, control 8 ± 6.
Take `CCCCCCCCC(CCC)C(=O)[O-].[Na+]` (centres unmarked) [Example 7(32)]: the “GABAA receptor responses (means ± S.E.)” value came to 48 ± 20 pA. For the compound `CCCC(CCCCCC(F)F)C(=O)[O-].[Na+]` (centres unmarked) [Example 2(2)], the “GABAA receptor responses (means ± S.E.)” value was determined as 114 ± 81 pA.

In the case of `CCCCCCC(CCC)C(=O)[O-].[Na+]` (centres unmarked) [Example 7(33)], the “GABAA receptor responses (means ± S.E.)” value stood at 237 ± 69 pA. Still for that read-out and setting: under `CCCCCCCC(CCC)C(=O)O` (centres unmarked) [Example 2-PNA, 2-propylnonanic acid] stands 107 ± 50 pA.

Staying with this experiment, now noted: 0.3 mM, 14 DIV after serial passages, control 8 ± 6.
Consider `CCCC(CCCCCCCF)C(=O)[O-].[Na+]` (centres unmarked) [Example 7(2)], for which the “GABAA receptor responses (means ± S.E.)” value was determined as 730.0 ± 226.4 pA. In the case of `CCCC(CCCCCC(F)(F)F)C(=O)[O-].[Na+]` (centres unmarked) [Example 2(9)], the “GABAA receptor responses (means ± S.E.)” value is 236.4 ± 85.5 pA.

Take `CCCC(CCCCCC(F)F)C(=O)[O-].[Na+]` (centres unmarked) [Example 2(2)]: the “GABAA receptor responses (means ± S.E.)” value is given as 527 ± 201 pA. Still for that read-out and setting: for `CCCCCOC(CCC)C(=O)[O-].[Na+]` (centres unmarked) [Example 7(37)] the value was 139 ± 52 pA. Take `CCCC(CCCCF)C(=O)[O-].[Na+]` (centres unmarked) [Example 2(6)]: the “GABAA receptor responses (means ± S.E.)” value turned out to be 184.0 ± 118.1 pA. The same measure, in the same setting: under `CCCC(CCCOc1ccccc1)C(=O)[O-].[Na+]` (centres unmarked) [Example 7(9)] stands 512.1 ± 233.1 pA.

In the case of `CCCC(CCCCC(F)(F)F)C(=O)[O-].[Na+]` (centres unmarked) [Example 2(10)], the “GABAA receptor responses (means ± S.E.)” value stood at 800.0 ± 415.6 pA. Still for that read-out and setting: for `CCCC(CCCCC(F)F)C(=O)[O-].[Na+]` (centres unmarked) [Example 2] the value was 193 ± 103 pA; for `CCCC[C@@H](CC)C(=O)O` (racemic) [Example 11], 35 ± 15 pA; for `CCCC(CCCCCF)C(=O)[O-].[Na+]` (centres unmarked) [Example 7], 213.1 ± 150.1 pA. Still for that read-out and setting: for `CCCC(CCC)C(=O)[O-].[Na+]` [VPA, sodium valproate] the value was 37 ± 26 pA. The same measure, in the same setting: under `CCCC(CCCCCCF)C(=O)[O-].[Na+]` (centres unmarked) [Example 7(1)] stands 260.0 ± 47.3 pA.

Regarding `CCCC(CCC(C)C)C(=O)[O-].[Na+]` (centres unmarked) [Example 7(16)], the “GABAA receptor responses (means ± S.E.)” value was 105 ± 65 pA. On the same count and under the same terms, for `CCCCCCC(CCC)C(=O)[O-].[Na+]` (centres unmarked) [Example 7(33)] the value was 1260 ± 521 pA. On the same count and under the same terms, for `CCCCCC(CCC)C(=O)[O-].[Na+]` (centres unmarked) [Example 7(30)] the value was 233 ± 90 pA; for `CCCCCCCC(CCC)C(=O)O` (centres unmarked) [Example 2-PNA, 2-propylnonanic acid], 380 ± 124 pA; for `CCCC(CCCCC(C)C)C(=O)[O-].[Na+]` (centres unmarked) [Example 7(17)], 259.0 ± 83.7 pA. In the case of `CCCCC(CCC)C(=O)[O-].[Na+]` (centres unmarked) [Example 7(31)], the “GABAA receptor responses (means ± S.E.)” value worked out at 51 ± 28 pA. On the same count and under the same terms, under `CCCC(CCC1CCCCC1)C(=O)[O-].[Na+]` (centres unmarked) [Example 7(4)] stands 163.0 ± 60.4 pA.

The same experiment, now with this note: 1.0 mM, 14 DIV after serial passages, control 8 ± 6.
Take `CCCC(CCCC(C)C)C(=O)[O-].[Na+]` (centres unmarked) [Example 7(18)]: the “GABAA receptor responses (means ± S.E.)” value worked out at 658.6 ± 440.7 pA.

On to `CCCC(CCCC(F)(F)F)C(=O)[O-].[Na+]` (centres unmarked) [Example 2(8)], for which the “GABAA receptor responses (means ± S.E.)” value is recorded as 470.6 ± 124.9 pA. As for `CCCC(CCCCC(F)F)C(=O)[O-].[Na+]` (centres unmarked) [Example 2], the “GABAA receptor responses (means ± S.E.)” value is 628 ± 227 pA. As to `CCCC(CCC(F)(F)F)C(=O)[O-].[Na+]` (centres unmarked) [Example 2(12)], the “GABAA receptor responses (means ± S.E.)” value turned out to be 672 ± 242 pA. Same read-out and setting: for `CCCC[C@@H](CC)C(=O)O` (racemic) [Example 11] the value was 190 ± 134 pA; for `CCCC(CCCCCF)C(=O)[O-].[Na+]` (centres unmarked) [Example 7], 661.7 ± 306.3 pA. On to `CCCC(CCCCc1ccccc1)C(=O)[O-].[Na+]` (centres unmarked) [Example 7(8)], for which the “GABAA receptor responses (means ± S.E.)” value is given as 59.0 ± 20.6 pA.

Consider `CCCC(CCC)C(=O)[O-].[Na+]` [VPA, sodium valproate], for which the “GABAA receptor responses (means ± S.E.)” value was found to be 193 ± 141 pA. The same measure, in the same setting: for `CCCC(CCC(C)C)C(=O)[O-].[Na+]` (centres unmarked) [Example 7(16)] the value was 417 ± 140 pA; for `CCCCCC(CCC)C(=O)[O-].[Na+]` (centres unmarked) [Example 7(30)], 675 ± 201 pA; for `CCCCC(CCC)C(=O)[O-].[Na+]` (centres unmarked) [Example 7(31)], 565 ± 278 pA.

Still in this experiment, the particulars now being: 3.0 mM, 14 DIV after serial passages, control 8 ± 6.
Take `CCCC(CCCCOC)C(=O)[O-].[Na+]` (centres unmarked) [Example 7(14)]: the “GABAA receptor responses (means ± S.E.)” value is 285.7 ± 103.6 pA. On the same count and under the same terms, under `C=CCC(CCC)C(=O)[O-].[Na+]` (centres unmarked) [Example 7(28)] stands 122 ± 44 pA; under `CCCCCOC(CCC)C(=O)[O-].[Na+]` (centres unmarked) [Example 7(37)], 595 ± 190 pA; under `CCCC(CCCCF)C(=O)[O-].[Na+]` (centres unmarked) [Example 2(6)], 528.0 ± 160.2 pA.

As for `CCCC(CCCOc1ccccc1)C(=O)[O-].[Na+]` (centres unmarked) [Example 7(9)], the “GABAA receptor responses (means ± S.E.)” value amounted to 226.3 ± 60.5 pA.

Take `CCCC(CCCC(F)(F)F)C(=O)[O-].[Na+]` (centres unmarked) [Example 2(8)]: the “GABAA receptor responses (means ± S.E.)” value is reported as 808.6 ± 325.4 pA. Still for that read-out and setting: under `CC/C=C(\CCC)C(=O)[O-].[Na+]` [Example 13] stands 171 ± 55 pA; under `CCCC(CCC(F)(F)F)C(=O)[O-].[Na+]` (centres unmarked) [Example 2(12)], 1109 ± 227 pA; under `CCCC(Cl)(CCC)C(=O)OC` [Example 9], 467 ± 187 pA. Same read-out and setting: under `CCCC(CCCF)C(=O)[O-].[Na+]` (centres unmarked) [Example 2(5)] stands 326 ± 148 pA. Same read-out and setting: for `CCCC[C@@H](CC)C(=O)O` (racemic) [Example 11] the value was 281 ± 174 pA; for `CCCC(CCC)C(=O)[O-].[Na+]` [VPA, sodium valproate], 1263 ± 303 pA. As for `CCCC(C(=O)[O-])C1CCCCC1.[Na+]` (centres unmarked) [Example 7(26)], the “GABAA receptor responses (means ± S.E.)” value stood at 344.7 ± 342.5 pA. With `CCCCC(CCC)C(=O)[O-].[Na+]` (centres unmarked) [Example 7(31)], the “GABAA receptor responses (means ± S.E.)” value turned out to be 590 ± 180 pA.

Another experiment relates to experimental brain ischemia model. In words: Experiment 4: experimental brain ischemia, conditional avoidance experiment. The class given is in vivo, rat. To be noted: 300 mg/kg i.p. once daily for 4 days after deligation; 10 trials within 2 days; ischemic reference 2.8±0.8, normal 6.1±0.7, sham 4.8±0.8.
Experimental: Establishing the experimental brain ischemia model: Vertebral arteries of pentobarbital-anesthetized rats were bilaterally coagulated, and a period of 7 days was allowed for recovery. The previously surgically exposed bilateral common carotid arteries of ischemic rats were mechanically ligated for 20 min. Immediately after deligation, the rats were once daily injected i.p. with sodium valproate (300 mg/kg) for 4 consecutive days. On deligation day 5˜6, mobility aspects in the conditional avoidance experiment were monitored.
Mobility aspects of the conditional avoidance experiment: The step-up model of the dark/light box was used. Animals placed in the dark section of the grid-floored box with the connecting door closed were allowed to accustomed to the environment for 1 minute. The door was then opened for 10 seconds. Rats that stepped up to the lighted section via the opened door were considered positive in the conditional avoidance test. Animals categorized as negative in the test were placed in the dark section with the door closed for 10 seconds prior to subjecting them to electric foot shock at 2 mA for 50 seconds. […] The above procedure was repeated 5 trials per day at 30-minutes intervals. A total of 10 trials within 2 days were attempted.
In the case of `CCCC(CCC)C(=O)[O-].[Na+]` [VPA, sodium valproate], the “conditional avoidance response, count (frequencies)” value came out at 5.3±0.8.

The next experiment relates to GABAA receptor. As to the kind of experiment: Experiment 1: GABAA receptor responses of cultured astrocytes (GABA-induced Cl- current, whole-cell voltage-clamp). The class given is cell-based, rat. To be noted: 0.3 mM; added on 1 DIV, measured on 7 DIV; GABA 3×10^−5 M-induced Cl− current; control 90 ± 43. The protocol:
as §1, §2
As to `CCCC(CCC)C(=O)[O-].[Na+]` [VPA, sodium valproate], the “GABAA receptor responses (means ± S.E.)” value was 254 ± 106 pA.

Staying with this experiment, now noted: 1.0 mM; added on 1 DIV, measured on 7 DIV; GABA 3×10^−5 M-induced Cl− current; control 90 ± 43.
On to `CCCC(CCC)C(=O)[O-].[Na+]` [VPA, sodium valproate], for which the “GABAA receptor responses (means ± S.E.)” value was 432 ± 98 pA.

The same experiment, now with this note: 3.0 mM; added on 1 DIV, measured on 7 DIV; GABA 3×10^−5 M-induced Cl− current; control 90 ± 43.
For the compound `CCCC(CCC)C(=O)[O-].[Na+]` [VPA, sodium valproate], the “GABAA receptor responses (means ± S.E.)” value is 1301 ± 156 pA.

For another experiment, the system named is astrocytes. In words: Experiment 1: GFAP contents of cultured astrocytes (ELISA). The class given is cell-based, rat. To be noted: 0.3 mM; added on 1 DIV, ELISA on 11 DIV; ratio of the control group (control 100.0). How it is done: as §1, §2
The GFAP contents were expressed as a ratio of the control group.
In the case of `CCCC(CCC)C(=O)[O-].[Na+]` [VPA, sodium valproate], the “Ratio of increase in GFAP contents” value is recorded as 30.6%.

The same experiment, now with this note: 1.0 mM; added on 1 DIV, ELISA on 11 DIV; ratio of the control group (control 100.0).
As for `CCCC(CCC)C(=O)[O-].[Na+]` [VPA, sodium valproate], the “Ratio of increase in GFAP contents” value is 36.3%.

The same experiment, now with this note: 3.0 mM; added on 1 DIV, ELISA on 11 DIV; ratio of the control group (control 100.0).
`CCCC(CCC)C(=O)[O-].[Na+]` [VPA, sodium valproate]: the “Ratio of increase in GFAP contents” value stood at 44.3%.

A further experiment concerns neurons. As to the kind of experiment: Experiment 3: suppression of cell death in neurons-astrocytes co-culture. In kind it is cell-based, rat. Conditions: 3 mM; neurons co-cultured with astrocytes; control <10%. How it is done: Astrocytes, prepared in a manner similar to that of Experiment 1, were cultured for 14 days. Previously prepared neurons (3×10^4 cells/well), isolated from cerebrum of 19-day old fetus rats, were added to the cultured astrocytes (3×10^5 cells/well) and allowed to grow. During the culture process, survival rates and neuronal dendrite extension/ramification of neurons were observed. Note that, sodium valproate (3 mM) and astrocytes were initially added to the neurons concomitantly, and freshly prepared similar culture media containing the invented compound (3 mM) were subsequently added at 3˜4-day intervals.
As to `CCCC(CCC)C(=O)[O-].[Na+]` [VPA, sodium valproate], the “Survival rates (on 22 days)” value is recorded as 60-70%^.

The same experiment, now with this note: 3 mM; neurons co-cultured with astrocytes; not observed in control.
`CCCC(CCC)C(=O)[O-].[Na+]` [VPA, sodium valproate]: the “dendrite generation in the neurons” value is reported as “detected”.
